Reference: PMC3297008, “Novel Marine Phenazines as Potential Cancer Chemopreventive and Anti-Inflammatory Agents” (Marine Drugs, 2012)

How the values were obtained:
[1] = test system: RAW 264.7 cells; test: Cell viability (SRB) of RAW 264.7 cells in the NO assay; type: cell-based; conditions: 50 µM
[2] = biological target: T1, human COX-2 (Homo sapiens, UniProt P35354); test: COX-2 inhibition assay (LC-MS/MS of PGE2); type: biochemical; conditions: for IC50: human COX-2; for Selectivity COX-1/COX-2: ratio of the IC50 values (COX-1/COX-2)
T1 sequence (P35354 18-604): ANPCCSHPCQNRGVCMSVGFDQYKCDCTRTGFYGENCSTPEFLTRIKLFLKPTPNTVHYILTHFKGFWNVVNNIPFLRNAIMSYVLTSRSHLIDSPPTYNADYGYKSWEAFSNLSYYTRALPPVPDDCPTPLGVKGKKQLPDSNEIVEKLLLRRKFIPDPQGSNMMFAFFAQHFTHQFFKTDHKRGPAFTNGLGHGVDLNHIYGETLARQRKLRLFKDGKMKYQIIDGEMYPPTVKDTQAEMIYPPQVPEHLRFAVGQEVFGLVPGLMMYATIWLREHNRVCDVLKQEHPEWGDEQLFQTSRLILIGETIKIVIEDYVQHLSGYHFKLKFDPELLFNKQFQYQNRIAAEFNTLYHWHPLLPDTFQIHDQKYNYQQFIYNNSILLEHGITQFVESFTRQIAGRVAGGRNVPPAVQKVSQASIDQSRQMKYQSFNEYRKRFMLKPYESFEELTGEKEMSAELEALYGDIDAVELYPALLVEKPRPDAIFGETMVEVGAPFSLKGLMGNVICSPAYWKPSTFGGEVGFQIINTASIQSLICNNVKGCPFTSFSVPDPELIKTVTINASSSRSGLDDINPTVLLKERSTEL
Description: Each COX reaction was initiated by adding 20 µL of arachidonic acid in Tris-HCl (pH 8.0) buffer to give a final concentration of 5 µM. The reaction was terminated after 2 min by adding 20 µL of 2.0 M HCl. The surrogate standard PGE2-d4 was added to correct for errors or degradation during sample handling and for variation in injection volume or instrument response during LC-MS/MS. After 30 min, PGE2 and its surrogate standard were extracted from each incubation mixture using 800 µL of hexane/ethyl acetate (50:50, v/v). The organic phase was removed, evaporated to dryness, and reconstituted in 100 µL methanol/water (50:50, v/v) for analysis using LC-MS/MS with an Applied Biosystems AP4000 triple quadrupole mass spectrometer as described previously. The concentration of PGE2 in each sample was measured using LC-MS/MS, and the percent of COX inhibition by each test solution was determined by comparing the amount of PGE2 produced in the experiment with that produced in the negative control incubation. For IC50 value determination, 12 different concentrations of each inhibitor were assayed three times. The IC50 value of each inhibitor toward COX-1 or COX-2 was determined by plotting and analyzing the inhibition curve data using Graph Pad Prism 5 software. The selectivity of each inhibitor was calculated as the ratio of the IC50 values (COX-1/COX-2).

[3] = test system: COX-2 mRNA expression; test: COX-2 mRNA expression in LPS-treated RAW 264.7 cells (real time quantitative PCR); type: cell-based; conditions: 50 µM
Text: Figure 2 Effect of phenazines on COX-2 (black) and iNOS (gray) mRNA expression in RAW 264.7 cells. Total RNA was isolated using the TRIZOL® Reagent method (Invitrogen) from RAW 264.7 cells (2 × 10^5 cells/well) after treatment with samples. cDNA was synthesized using the RT^2 First Strand Kit (C-03, SA Biosciences) protocol. cDNA was used for quantitative real time PCRs with fluorescent Power SyBR® Green PCR master mix (Applied Biosystems), employing GAPDH, iNOS, COX-2 specific primers, and a 7300 Real Time PCR System (Applied Biosystems). The results were derived from two independent RNA preparations employing identical triplicates in each analysis and quantitated using GAPDH as the internal control, following the manufacturer’s instructions. (A) GAPDH standard curve for quantitation of iNOS and COX-2 expression; (B) Levels of COX-2 (black) and iNOS (gray) mRNA expression. The concentration and duration of treatment had no significant effect on the viability of Raw 264.7 cells.
Total mRNA samples were isolated, and cDNA was amplified with specific primers, using GAPDH as housekeeping gene. LPS induced the expression of COX-2 and iNOS mRNA by approximately 11- and 24-fold, respectively. […]
RAW 264.7 cells (2 × 10^5 cells/well) were treated with test samples and total RNA was isolated with TRIZOL® Reagent (Invitrogen). […] The results were derived from two independent RNA preparations employing identical triplicates in each analysis and quantified using GAPDH as the internal control, following the manufacturer’s instructions. The fluorescence intensity (Rn) corresponding to the cycle of threshold value (Ct) is used to quantitate a given mRNA, employing the GAPDH standard curve (Figure 3A). The equation Y = −3.9408 X + 31.791 was used to quantify the relative mRNA content, where Y represents the number of cycles corresponding to the Ct (i.e., fluorescence intensity for a given mRNA species), and X represents the log copy number (C0) from which the relative content of mRNA was quantitated. […]

[4] = test system: HL-60 cells; test: NIM-DAPI cell cycle analysis / apoptosis of HL-60 cells; type: cell-based; conditions: 24 h incubation, various concentrations
Description: Figure 3 NIM-DAPI cell cycle analysis of HL-60 cells. HL-60 cells (2 × 10^5 cells/well) were treated with different concentrations of the indicated compounds for 24 h. The media were discarded, and 4',6-diamidino-2-phenylindole solution (NIM-DAPI; Beckman Coulter) was added just before the measurement using a Cell Lab Quanta™ SC (Beckman Coulter) flow cytometer. NIM-DAPI-stained cells were analyzed after excitation. […] Results are representative of two experiments in triplicate.
HL-60 cells (2 × 10^5 cells/well) were treated with samples for 24 h. The media were discarded and nuclear isolation medium (4',6-diamidino-2-phenylindole, NIM-DAPI; Beckman Coulter) was added just before the measurement using a Cell Lab Quanta™ SC (Beckman Coulter) flow cytometer. NIM-DAPI-stained cells were analyzed after excitation.
HL-60 cells at a concentration of 2 × 10^6 cells/mL were incubated with testing phenazines at different concentrations for 24 h. The cells were fixed with 1% paraformaldehyde in PBS and treated with ethanol to permiabilize the cells. Positive and negative control cells were provided already fixed. The DNA labeling reaction was carried out at 22–24 °C overnight. This assay was run on a Cell Lab Quanta™ SC, Beckman Coulter flow cytometer equipped with a 488 nm Argon laser as the light source. Propidium Iodide (total cellular DNA) and Fluorescein (apoptotic cells) were used. Propidium Iodide (PI) fluoresces at about 623 nm and Fluorescein at 520 nm when excited at 488 nm. Following the manufacturer’s instructions, an APO-BRDU™ Kit (Phoenix Flow Systems, Inc.) with a two color TUNEL (Terminal deoxynucleotide transferase dUTP Nick End Labeling) capability for labeling DNA breaks and total cellular DNA to detect apoptotic cells was used.

Structure (SMILES) | NO % cell survival [1] | IC50 [2] | Selectivity COX-1/COX-2 [2] | suppression of COX-2 mRNA expression [3] | accumulation of HL-60 cells in subG1 phase (apoptosis) [4] | enhancement of inhibition of the catalytic activity of COX-2 ([2]; phenazine 1 compared with lavanducyanin) | Selectivity COX-1/COX-2 ([2]; listed as phenazine 1)
CC1=C(Cn2c3cccc(=O)c-3nc3ccccc32)CCC(C)(C)C1 [Lavanducyanin 3, lavanducyanin] | 58.3 ± 4.6% | 34 ± 1.1 µM | 0.88 | 51% | accumulated in the subG1 phase of the cell cycle | – | –
CC(C)=CCn1c2ccc(Br)c(=O)c-2nc2ccccc21 [Phenazine 2] | 56.0 ± 5.1% | 7.2 ± 0.13 µM | 0.78 | 50% | accumulated in the subG1 phase of the cell cycle | – | –
CC1=C(Cn2c3ccc(Br)c(=O)c-3nc3ccccc32)CCC(C)(C)C1 [Phenazine 1] | 68.9 ± 3.8% | 4 ± 0.41 µM | 2.75 | 40% | accumulated in the subG1 phase of the cell cycle | ~10 fold | approximately 3
